The values that follow come from patent publication US6548235B2, “Stabilized solution of an alkali metal or alkaline earth metal salt of p-phenylenediamine color developer and method of making same” (Eastman Chemical Company, priority 2000, dated 2003).

SMILES strings stand for the structures.

Format in all cases: physicochemical
Data set [1] in a line: Product solution of CD-3 free base sodium salt after solvent exchange, observed at ambient temperature. The conditions noted are these: Example 53, nominally 23% in water after distilling 2-propanol, contains DEHA. The protocol:
A 425 gram autoclave solution containing 23.2% CD-3 free base, 2.5% DEHA in 268 g of 2-propanol, and 47 g of water was added to a two-liter flask equipped with an overhead agitator, temperature probe, addition funnel, condenser with take-off provision, and nitrogen blanketing. Water (275 g) and 30 g of 50% aqueous sodium hydroxide were added to the flask. The mixture was distilled at a vapor temperature of approximately 85° C.

A short description of data set [2]: Saturation solubility of CD-3 free base in solvents and solvent/water mixtures. To be noted: 3% DEHA, ambient temperature. As for the experimental part:
The solubility of the free base form of color developers CD-3 in a number of potential solvents was determined. Representative solvents were selected from each of the different classes of solvents: alcohols, glycols and glycol ethers. A small quantity of a representative preservative, 3% of N,N-diethylhydroxylamine (DEHA), was added. Excess dry color developer free base (CD-3) was added to each solvent and saturation was achieved by mixing for several hours at room temperature. […] In Table I, Solvent:Water refers to the weight:weight, solvent:water ratio when water was included, CD Free Base Concentration refers to the weight percent saturation concentration of CD-3, and PEG 200 and PEG 300 refers to poly(ethylene glycol) having an average molecular weight of 200 or 300.

Data set [3] in a line: Saturation solubility of CD-3 free base in solvent/water/sodium hydroxide systems. The conditions noted are these: 3 weight percent DEHA, ambient temperature, HPLC. The protocol:
Because CD-3 free base can be converted to its metal salt by treatment with a sufficiently strong base such as an alkali metal or alkaline earth metal hydroxide, carbonate, alkoxide or hydride, the solubility of CD-3 free base in solvent systems in combination with water and base was measured to determine if enhanced solubility could be obtained. The saturation concentration in weight percent again was determined by the techniques of both HPLC and NMR. Selected solvents were combined with water and an alkali metal hydroxide (sodium hydroxide), with each sample containing a small quantity (3 weight percent) of a representative preservative (DEHA). Excess, dry CD-3 free base was added to each combination solvent system and saturation was achieved by mixing for several hours at ambient temperature.

For the compound `CCN(CC[N-]S(C)(=O)=O)c1ccc(N)c(C)c1.[Na+]` [CD-3 free base sodium salt], the “Solution behaviour of final product solution” value in data set [1] was “remained in solution”.

`CCN(CCNS(C)(=O)=O)c1ccc(N)c(C)c1` [CD-3 free base, 4-amino-3-methyl-N-ethyl-N-(2-methanesulfonamidoethyl)aniline]: the “CD Free Base Conc. (saturation concentration)” value in data set [2] (Example 1, 2-Isopropoxyethanol) is 8.6 weight percent; in data set [2] (Example 2, 2-Methyl-1,3-Propanediol) it was 3.3 weight percent; in data set [2] (Example 3, 3-Methoxy-1-Butanol), 9.3 weight percent; in data set [2] (Example 4, PEG-200), 16.9 weight percent; in data set [2] (Example 5, PEG-300), 16.7 weight percent; in data set [2] (Example 6, Diethylene Glycol) it was 15.2 weight percent. The “CD Free Base Conc. (saturation concentration)” value in data set [2] (Example 7, Methanol) was determined as 23.6 weight percent; in data set [2] (Example 8, Methanol/Water 90:10 w:w), 18.9 weight percent; in data set [2] (Example 9, Methanol/Water 50:50 w:w) it was 6.8 weight percent; in data set [2] (Example 10, Methanol/Water 10:90 w:w), 0.7 weight percent; in data set [2] (Example 11, Ethanol), 5.4 weight percent; in data set [2] (Example 12, Ethanol/Water 90:10 w:w), 9.7 weight percent. For the same compound, the “CD Free Base Conc. (saturation concentration)” value was found to be 9.0 weight percent in data set [2] (Example 13, Ethanol/Water 50:50 w:w); 0.6 weight percent in data set [2] (Example 14, Ethanol/Water 10:90 w:w); 1.8 weight percent in data set [2] (Example 15, 2-Propanol); 7.8 weight percent in data set [2] (Example 16, 2-Propanol/Water 90:10 w:w); 9.2 weight percent in data set [2] (Example 17, 2-Propanol/Water 50:50 w:w); 0.8 weight percent in data set [2] (Example 18, 2-Propanol/Water 10:90 w:w). The “CD Free Base Conc. (saturation concentration)” value was 22.9 weight percent in data set [3] (Example 19, 2-Isopropoxyethanol/Water/NaOH 63:34:3 w); 19.0 weight percent in data set [3] (Example 20, 2-Methyl-1,3-Propanediol/Water/NaOH 63:34:3 w); 21.3 weight percent in data set [3] (Example 21, 3-Methoxy-1-Butanol/Water/NaOH 63:34:3 w); 19.5 weight percent in data set [3] (Example 22, PEG-200/Water/NaOH 63:34:3 w); 19.2 weight percent in data set [3] (Example 23, PEG-300/Water/NaOH 63:34:3 w); 15.1 weight percent in data set [3] (Example 24, Diethylene Glycol/Water/NaOH 63:34:3 w). The “CD Free Base Conc. (saturation concentration)” value in data set [3] (Example 26, 2-Methyl-1,3-Propanediol/Water/NaOH 61:33:6 w) was found to be 23.2 weight percent; in data set [3] (Example 27, 3-Methoxy-1-Butanol/Water/NaOH 61:33:6 w), 26.4 weight percent; in data set [3] (Example 28, PEG-200/Water/NaOH 61:33:6 w), 23.5 weight percent; in data set [3] (Example 29, PEG-300/Water/NaOH 61:33:6 w) it was 20.8 weight percent; in data set [3] (Example 30, Diethylene Glycol/Water/NaOH 61:33:6 w) it was 21.9 weight percent; in data set [3] (Example 31, Water/NaOH 93.5:6.5 w), 25.1 weight percent. In addition, the “CD Free Base Conc. (saturation concentration)” value in data set [3] (Example printed 24 (second), 2-Isopropoxyethanol/Water/NaOH 61:33:6 w) came to 21.9 weight percent.
